Source: ChEMBL document CHEMBL1201862, “PubChem BioAssay data set” (2004)
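1) Cells in 96-well plates. 2) Compound, 48 h, 5 concentrations. 3) Linear interpolation between surrounding doses. 4) Unreached endpoint = highest concentration. Here, GI50 denotes the concentration required for 50% inhibition of growth.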 Activity calls are given as the source filed them. Cut-off read from the data, not from the text of the source: active = GI50 up to about 1.1 µM and inactive = higher.

How the values were obtained:
Assay in all cases: NCI tumour cell line growth inhibition, 48 h
SNB-19 = tested on: SNB-19
SK-MEL-28 = tested on: SK-MEL-28
786-0 = tested on: 786-0
OVCAR-4 = tested on: OVCAR-4
SNB-75 = tested on: SNB-75
HOP-92 = tested on: HOP-92
UACC-257 = tested on: UACC-257
IGROV-1 = tested on: IGROV-1
NCI-H23 = tested on: NCI-H23
UACC-62 = tested on: UACC-62
COLO 205 = tested on: COLO 205
DMS-114 = tested on: DMS-114
OVCAR-3 = tested on: OVCAR-3
DMS-273 = tested on: DMS-273
HOP-18 = tested on: HOP-18
HOP-62 = tested on: HOP-62
OVCAR-8 = tested on: OVCAR-8
A549 = tested on: A549
SF-539 = tested on: SF-539
HL-60 = tested on: HL-60
NCI-H226 = tested on: NCI-H226
SNB-78 = tested on: SNB-78
HT-29 = tested on: HT-29
NCI-H460 = tested on: NCI-H460
UO-31 = tested on: UO-31
M14 = tested on: M14
DLD-1 = tested on: DLD-1
K562 = tested on: K562
TK-10 = tested on: TK-10
SK-MEL-5 = tested on: SK-MEL-5
Malme-3M = tested on: Malme-3M
CAKI-1 = tested on: CAKI-1
XF498 = tested on: XF498
A498 = tested on: A498
EKVX = tested on: EKVX
KM-20L2 = tested on: KM-20L2
CCRF-CEM = tested on: CCRF-CEM
ACHN = tested on: ACHN
SW-620 = tested on: SW-620
LOX IMVI = tested on: LOX IMVI
M19-MEL = tested on: M19-MEL
KM12 = tested on: KM12
HCT-116 = tested on: HCT-116
MOLT-4 = tested on: MOLT-4
LXFL 529 = tested on: LXFL 529
RXF 393 = tested on: RXF 393
HCT-15 = tested on: HCT-15
NCI-H522 = tested on: NCI-H522
SF-295 = tested on: SF-295
SN12C = tested on: SN12C
RPMI-8226 = tested on: RPMI-8226
U-251 = tested on: U-251
SK-MEL-2 = tested on: SK-MEL-2
SK-OV-3 = tested on: SK-OV-3
SF-268 = tested on: SF-268
HCC 2998 = tested on: HCC 2998
MCF7 = tested on: MCF7
NCI/ADR-RES = tested on: NCI/ADR-RES
OVCAR-5 = tested on: OVCAR-5

Measured: GI50

CN(C)CC(C)(C)C(=O)/C=C/c1ccccc1
inactive: SNB-19 15.8 µM | SK-MEL-28 16 µM | 786-0 15.4 µM | OVCAR-4 14.2 µM | SNB-75 16.1 µM | HOP-92 8.41 µM | UACC-257 12.8 µM | IGROV-1 12.9 µM | NCI-H23 19.9 µM | UACC-62 13.2 µM | COLO 205 13.3 µM | DMS-114 14.2 µM | OVCAR-3 17.5 µM | DMS-273 16.9 µM | HOP-18 17.1 µM | HOP-62 28.4 µM | OVCAR-8 18 µM | A549 28.8 µM | SF-539 16.6 µM | HL-60 5.58 µM | NCI-H226 13.9 µM | SNB-78 14.7 µM | HT-29 15.8 µM | NCI-H460 13.9 µM | UO-31 11 µM | M14 13.8 µM | DLD-1 12.6 µM | K562 5.13 µM | TK-10 18.2 µM | SK-MEL-5 16.2 µM | Malme-3M 11.6 µM | CAKI-1 15.8 µM | XF498 11.6 µM | A498 17 µM | EKVX 17.6 µM | KM-20L2 15.3 µM | CCRF-CEM 3.39 µM | ACHN 17.9 µM | SW-620 14.5 µM | LOX IMVI 11.2 µM | M19-MEL 16.3 µM | KM12 14.1 µM | HCT-116 13.5 µM | MOLT-4 14.4 µM | LXFL 529 12.3 µM | RXF 393 11.9 µM | NCI-H522 10.3 µM | SF-295 17.5 µM | SN12C 13.3 µM | RPMI-8226 12.2 µM | U-251 16.3 µM
12.6 µM: HCT-15

NCC(=O)OCN1C(=O)C2C3C=CC(C2C1=O)C1C2C(=O)N(COC(=O)CN)C(=O)C2C31 (stereo not drawn)
16.9 µM: HCT-15
inactive: SNB-19 48.8 µM | SK-MEL-28 19.5 µM | 786-0 19.6 µM | OVCAR-4 26.1 µM | SNB-75 32.3 µM | HOP-92 > 100 µM | UACC-257 31.8 µM | IGROV-1 40.2 µM | NCI-H23 29.2 µM | UACC-62 24.2 µM | COLO 205 18.2 µM | DMS-114 16.2 µM | OVCAR-3 35 µM | DMS-273 19.8 µM | HOP-18 25.9 µM | SK-MEL-2 21.4 µM | OVCAR-8 20.3 µM | A549 25.5 µM | SF-539 18.9 µM | HL-60 18.2 µM | NCI-H226 39.5 µM | SNB-78 53.6 µM | HT-29 36.6 µM | NCI-H460 17.3 µM | UO-31 56.8 µM | M14 18.9 µM | DLD-1 25.1 µM | K562 28.6 µM | TK-10 53.1 µM | SK-OV-3 60.8 µM | SK-MEL-5 17.7 µM | CAKI-1 32.9 µM | XF498 31.4 µM | A498 87.5 µM | EKVX > 100 µM | KM-20L2 28.6 µM | CCRF-CEM 21 µM | ACHN 24.5 µM | SW-620 24.4 µM | LOX IMVI 19.1 µM | M19-MEL 21 µM | KM12 20.8 µM | HCT-116 14.6 µM | MOLT-4 16.9 µM | SF-268 23.4 µM | LXFL 529 36.2 µM | RXF 393 24 µM | SF-295 53.7 µM | SN12C 23.3 µM | RPMI-8226 28 µM | U-251 18.7 µM

C=CC12CN(C)C3C4COC(CC41)C1(C(=O)Nc4ccccc41)C32 (stereo not drawn)
> 195 µM: HCT-15
inactive: SNB-19 > 200 µM | SK-MEL-28 175 µM | OVCAR-4 > 200 µM | SNB-75 146 µM | HOP-92 > 140 µM | UACC-257 > 200 µM | IGROV-1 > 200 µM | NCI-H23 > 173 µM | UACC-62 > 178 µM | COLO 205 > 149 µM | DMS-114 > 144 µM | OVCAR-3 > 200 µM | DMS-273 > 200 µM | HOP-18 > 200 µM | HOP-62 > 147 µM | SK-MEL-2 > 148 µM | OVCAR-8 > 200 µM | A549 166 µM | HCC 2998 > 151 µM | SF-539 > 200 µM | HL-60 152 µM | NCI-H226 6.67 µM | SNB-78 176 µM | HT-29 > 145 µM | NCI-H460 166 µM | UO-31 > 181 µM | DLD-1 198 µM | K562 165 µM | SK-OV-3 > 20 µM | MCF7 > 200 µM | SK-MEL-5 > 200 µM | Malme-3M 174 µM | CAKI-1 > 200 µM | XF498 21.5 µM | A498 9.29 µM | EKVX > 200 µM | KM-20L2 > 151 µM | CCRF-CEM 96.6 µM | NCI/ADR-RES > 165 µM | SW-620 174 µM | LOX IMVI > 150 µM | M19-MEL > 148 µM | KM12 168 µM | HCT-116 158 µM | MOLT-4 > 200 µM | SF-268 173 µM | OVCAR-5 > 200 µM | RXF 393 > 179 µM | NCI-H522 44.7 µM | SF-295 > 200 µM | SN12C > 200 µM | RPMI-8226 > 195 µM | U-251 > 156 µM
